These results are taken from US20060194969A1, “4-Substituted benzimidazoles and their uses as inhibitors of gastric secretion” (priority 2002, published 2006).

Structures are written as SMILES. Where only a bound is given, the exact number is not on record here.

Data set [1] relates to pentagastrin-stimulated acid secretion of the perfused rat stomach. Description: Secretion-inhibiting action on the perfused rat stomach (pentagastrin-stimulated acid secretion, intraduodenal administration in vivo). Conditions: dose 1 μmol/kg i.d., anesthetized female CD rat; for inhibition in vivo at 1 µmol/kg: intraduodenal. From the text: Testing of the Secretion-Inhibiting Action on the Perfused Rat Stomach
In Table A which follows, the influence of the compounds according to the invention on the pentagastrin-stimulated acid secretion of the perfused rat stomach after intraduodenal administration in vivo is shown.
The abdomen of anesthetized rats (CD rat, female, 200-250 g; 1.5 g/kg i.m. urethane) was opened after tracheotomy by a median upper abdominal incision and a PVC catheter was fixed transorally in the esophagus and another via the pylorus such that the ends of the tubes just projected into the gastric lumen. The catheter leading form the pylorus led outward into the right abdominal wall through a side opening.
After thorough rinsing (about 50-100 ml), warm (37° C.) physiological NaCl solution was continuously passed through the stomach (0.5 ml/min, pH 6.8-6.9; Braun-Unita I). The pH (pH meter 632, glass electrode EA 147; φ=5 mm, Metrohm) and, by titration with a freshly prepared 0.01 N NaOH solution to pH 7 (Dosimat 665 Metrohm), the secreted HCl were determined in the effluent in each case collected at an interval of 15 minutes.
The gastric secretion was stimulated by continuous infusion of 1 μg/kg (=1.65 ml/h) of i.v. pentagastrin (left femoral vein) about 30 min after the end of the operation (i.e. after determination of 2 preliminary fractions). The substances to be tested were administered intraduodenally in a 2.5 ml/kg liquid volume 60 min after the start of the continuous pentagastrin infusion.
The body temperature of the animals was kept at a constant 37.8-38° C. by infrared irradiation and heat pads (automatic, stepless control by means of a rectal temperature sensor).

In turn, `CCc1cccc(C)c1COc1cc(C(=O)N(C)C)cc2c1nc(C)n2C` [Example 8, 6-(N,N-Dimethylaminocarbonyl)-4-(2-ethyl-6-methyl-benzyloxy)-1,2-dimethyl-1H-benzimidazole] yielded a melting point of 161 to 162 °C. In data set [1], this compound had an inhibition in vivo at 1 µmol/kg of more than 50%. As to `CCc1cccc(C)c1CNc1cc(C(=O)N(C)C)cc2c1nc(COC)n2C` [Example 42, 6-(N,N-Dimethylaminocarbonyl)-4-(2-ethyl-6-methyl-benzylamino)-2-methoxymethyl-1-methyl-1H-benzimidazole], the melting point worked out at 154 °C. In addition, the inhibition in vivo at 1 µmol/kg in data set [1] is more than 50%.

Consider `CCc1cccc(C)c1CNc1cc(C(=O)N2CCCC2)cc2c1nc(C)n2C` [Example 40, 4-(2-Ethyl-6-methyl-benzylamino)-1,2-dimethyl-6-(pyrrolidinocarbonyl)-1H-benzimidazole], for which the melting point was 126 °C. In addition, the inhibition in vivo at 1 µmol/kg in data set [1] is more than 50%.

Compound `CCc1cccc(C)c1CNc1cc(C(=O)N(C)C)cc2[nH]c(C)nc12` [Example 49, 6-(N,N-Dimethylaminocarbonyl)-4-(2-ethyl-6-methyl-benzylamino)-2-methyl-1H-benzimidazole] showed a melting point of 228 to 230 °C. Further, the inhibition in vivo at 1 µmol/kg in data set [1] is more than 50%.

Consider `Cc1nc2c(O[C@@H]3c4ccc(Cl)cc4C[C@H]3O)cc(C(=O)N(C)C)cc2n1C.O=C(O)C(=O)O` (relative stereo) [Example 19, 4-(trans-5-Chloro-2,3-dihydro-2-hydroxy-1-indenyloxy)-6-(N,N-dimethylaminocarbonyl)-1,2-dimethyl-1H-benzimidazole Oxalate], for which the melting point was in the range of 158 to 159 °C. In data set [1], this compound had an inhibition in vivo at 1 µmol/kg of more than 50%. With `COCC(=O)O[C@@H]1Cc2ccccc2[C@H]1Oc1cc(C(=O)N(C)C)cc2c1nc(C)n2C` (relative stereo) [Example 13], the “Inhibition of acid secretion (%)” value in data set [1] was more than 50%. Regarding `Cc1nc2c(O[C@@H]3c4ccccc4C[C@H]3O)cc(C(=O)N(C)C)cc2n1C.O=C(O)C(=O)O` (relative stereo) [Example 10, 4-(trans-2,3-Dihydro-2-hydroxy-1-indenyloxy)-6-(N,N-dimethylaminocarbonyl)-1,2-dimethyl-1H-benzimidazole Oxalate], the melting point lay within 144 to 145 °C. Further, the inhibition in vivo at 1 µmol/kg in data set [1] was more than 50%. The compound `CNC(=O)c1cc(NCc2c(C)cccc2C)c2nc(C)n(C)c2c1` [Example 55, 4-(2,6-Dimethyl-benzylamino)-1,2-dimethyl-6-(N-methylaminocarbonyl)-1H-benzimidazole] displayed a melting point of 252 to 253 °C. In data set [1], the inhibition in vivo at 1 µmol/kg is more than 50%. `CCc1cccc(C)c1CNc1cc(C(=O)N2CCOCC2)cc2c1nc(C)n2C` [Example 41, 4-(2-Ethyl-6-methyl-benzylamino)-1,2-dimethyl-6-(morpholinocarbonyl)-1H-benzimidazole] yielded a melting point of 229 to 231 °C. In data set [1], this compound had an inhibition in vivo at 1 µmol/kg of more than 50%.

The compound `CCOC(=O)c1cc(NCc2c(C)cccc2CC)c2nc(C)n(C)c2c1` [Example 27, Ethyl 4-(2-ethyl-6-methyl-benzylamino)-1,2-dimethyl-1H-benzimidazole-6-carboxylate] registered a melting point of 171 to 173 °C. In the case of `Cc1nc2c(O[C@H]3c4ccccc4C[C@@H]3O)cc(C(=O)N(C)C)cc2n1C.O=C(O)C(=O)O` [Example 11, 4-[(1S,2S)-2,3-Dihydro-2-hydroxy-1-indenyloxy]-6-(N,N-dimethylaminocarbonyl)-1,2-dimethyl-1H-benzimidazole Oxalate], the melting point is 126 to 127 °C. In data set [1], this compound had an inhibition in vivo at 1 µmol/kg of more than 50%. As for `COCc1nc2c(NCc3c(C)cccc3C)cc(C(=O)NCCO)cc2n1C` [Example 37, 4-(2,6-Dimethyl-benzylamino)-6-(2-hydroxyethyl-aminocarbonyl)-2-methoxymethyl-1-methyl-1H-benzimidazole], the melting point is 186 to 187 °C.

Take `Cc1cccc(C)c1CNc1cc(C(=O)O)cc2c1nc(C)n2C` [Example 32, 4-(2,6-Dimethyl-benzylamino)-1,2-dimethyl-1H-benzimidazole-6-carboxylic Acid]: the melting point lay in the range of 315 to 318 °C. `CCc1cccc(C)c1CNc1cc(C(=O)NCCO)cc2c1nc(C)n2C` [Example 35, 4-(2-Ethyl-6-methyl-benzylamino)-6-(2-hydroxyethyl-aminocarbonyl)-1,2-dimethyl-1H-benzimidazole]: the melting point fell in the range of 200 to 201 °C. For the same compound, the inhibition in vivo at 1 µmol/kg in data set [1] is more than 50%. Consider `Cc1cccc(C)c1COc1cc(C(=O)N(C)C)cc2c1nc(C)n2C` [Example 9, 6-(N,N-Dimethylaminocarbonyl)-4-(2,6-dimethyl-benzyloxy)-1,2-dimethyl-1H-benzimidazole], for which the melting point is 180 °C. With `CCc1cccc(C)c1CNc1cc(C(N)=O)cc2c1nc(C)n2C` [Example 38, 4-(2-Ethyl-6-methyl-benzylamino)-1,2-dimethyl-1H-benzimidazole-6-carboxamide], the melting point was 240 to 241 °C. The inhibition in vivo at 1 µmol/kg in data set [1] is more than 50%. With `Cc1cccc(C)c1COc1cc(C(=O)O)cc2c1nc(C)n2C` [Example 4, 4-(2,6-Dimethyl-benzyloxy)-1,2-dimethyl-1H-benzimidazole-6-carboxylic Acid], the melting point lay within 285 to 286 °C. Same read-out and setting: the same measure for `COC(=O)c1cc(OCc2ccccc2)c2nc(C)n(C)c2c1` [Example 53, Methyl 4-benzyloxy-1,2-dimethyl-1H-benzimidazole-6-carboxylate]: 166 °C; for `COCc1cc(OCc2ccccc2)c2nc(C)n(C)c2c1` [Example 6, 4-Benzyloxy-6-methoxymethyl-1,2-dimethyl-1H-benzimidazole]: 113 °C.

As to `Cc1ccccc1CNc1cc(C(=O)N(C)C)cc2c1nc(C)n2C` [Example 61, 6-(N,N-Dimethylaminocarbonyl)-1,2-dimethyl-4-(2-methyl-benzylamino)-1H-benzimidazole], the melting point fell in the range of 158 to 159 °C. On the same count and under the same terms, the result for `Cc1nc2c(O[C@@H]3c4ccccc4C[C@H]3O)cc(C(=O)O)cc2n1C` (relative stereo) [Example 16, 4-(trans-2,3-Dihydro-2-hydroxy-1-indenyloxy)-1,2-dimethyl-1H-benzimidazole-6-carboxylic Acid] reads 306 °C; that for `COC(=O)Nc1cccc(C)c1CNc1cc(C(=O)N(C)C)cc2c1nc(C)n2C` [Example 50, 6-(N,N-Dimethylaminocarbonyl)-4-(2-methoxycarbonylamino-6-methyl-benzylamino)-1,2-dimethyl-1H-benzimidazole], 193 to 195 °C.

In the case of `CCc1cccc(C)c1CNc1cc(C(=O)N(C)C)cc2c1nc(C)n2C` [Example 44], the “Inhibition of acid secretion (%)” value in data set [1] is listed as more than 50%.

For `Cc1cccc(C)c1CNc1cc(C2=NCCO2)cc2c1nc(C)n2C` [Example 74, 6-(4,5-Dihydro-oxazol-2-yl)-4-(2,6-dimethyl-benzylamino)-1,2-dimethyl-1H-benzimidazole], the melting point turned out to be 235 °C.

`COn1c(C)nc2c(NCc3c(C)cccc3C)cc(C(=O)O)cc21` [Example 79, 4-(2,6-Dimethyl-benzylamino)-1-methoxy-2-methyl-1H-benzimidazole-6-carboxylic acid]: the melting point lay in the range of 248 to 249 °C.

Compound `COn1c(C)nc2c(NCc3c(C)cccc3C)cc(Br)cc21` [Example 77, 6-Bromo-4-(2,6-dimethyl-benzylamino)-1-methoxy-2-methyl-1H-benzimidazole] registered a melting point of 171 to 172 °C. Still for that read-out and setting: the result for `Cc1cccc(C)c1CNc1cc(C2=NCCN2C)cc2c1nc(C)n2C` [Example 73, 6-(4,5-Dihydro-1-methyl-1H-imidazol-2-yl)-4-(2,6-dimethyl-benzylamino)-1,2-dimethyl-1H-benzimidazole] reads 118 to 119 °C; that for `Cc1cccc(CO)c1CNc1cc(C(=O)N(C)C)cc2c1nc(C)n2C` [Example 70, 6-(N,N-Dimethylaminocarbonyl)-4-(2-hydroxymethyl-6-methyl-benzylamino)-1,2-dimethyl-1H-benzimidazole], 197 to 198 °C; that for `COn1c(C)nc2c(NCc3c(C)cccc3C)cc(C(=O)N(C)C)cc21` [Example 80, 6-(N,N-Dimethylamino-carbonyl)-4-(2,6-dimethyl-benzylamino)-1-methoxy-2-methyl-1H-benzimidazole], 128 to 129 °C. In turn, `Cc1nc2c(NCc3c(C)cccc3C)cc(C(=O)N(C)C)cc2[nH]1` [Example 67, 6-(N,N-Dimethylaminocarbonyl)-4-(2,6-dimethyl-benzylamino)-2-methyl-1H-benzimidazole] showed a melting point of 203 °C. In turn, `CCc1cccc(C)c1CNc1cc(C(=O)O)cc2c1nc(C)n2C` [Example 31, 4-(2-Ethyl-6-methyl-benzylamino)-1,2-dimethyl-1H-benzimidazole-6-carboxylic Acid] gave a melting point of 312 to 314 °C. Still for that read-out and setting: the same measure for `CCOC(=O)c1cc(OCc2ccccc2)c2nc(C)n(C)c2c1` [Example 52, Ethyl 4-benzyloxy-1,2-dimethyl-1H-benzimidazole-6-carboxylate]: 152 °C.
